In patent US8536307B2, “Anticalins” (Pieris AG, priority 1997, dated 2013):

Assays:
[1] = target: T1, anticalin FluA, mutein of Pieris brassicae bilin-binding protein (Bbp): Asn34Ser, Ser35Pro, Val36Asn, Glu37Gly, Asn58Arg, His60Asp, Ile69Met, Leu88Arg, Tyr90Val (Pieris brassicae, UniProt P09464, E111K/E52G/F142H/H75D/I84M/K102S/K110R/K131R/K150M/L103R/N112T/N16D/N36Q/N49S/N73R/Q140W/S50P/V108Y/V51N/Y105V/Y129S); settings: fluorescence titration, excitation 280 nm, emission 340 nm, 1 μM anticalin, PBS with 1 mM EDTA, pH 7.4, 25° C.
[2] = target: anticalin FluB, mutein of Pieris brassicae bilin-binding protein (Bbp): Asn34Gln, Ser35His, Val36Trp, Glu37Asp, Asn58Arg, His60Arg, Ile69His, Glu70Lys, Leu88Val (Pieris brassicae, UniProt P09464, E52D/E85K/F142H/H75R/I84H/K102S/K110R/K131R/K150M/L103V/N112G/N16D/N36Q/N49Q/N73R/Q140W/S50H/V108R/V51W/Y105R/Y129R); settings: fluorescence titration, excitation 280 nm, emission 340 nm, 1 μM anticalin, PBS with 1 mM EDTA, pH 7.4, 25° C.
[3] = target: T1, anticalin FluA, mutein of Pieris brassicae bilin-binding protein (Bbp): Asn34Ser, Ser35Pro, Val36Asn, Glu37Gly, Asn58Arg, His60Asp, Ile69Met, Leu88Arg, Tyr90Val; settings: fluorescein 1 μM, excitation 490 nm, emission 512 nm, PBS with 1 mM EDTA, pH 7.4, 25° C.
[4] = target: recombinant Pieris brassicae bilin-binding protein (Bbp), parent (Pieris brassicae, UniProt P09464, K102S/K150M/N16D/N36Q); settings: control experiment corresponding to that with FluA, excitation 490 nm, emission 512 nm
Chain of recombinant Pieris brassicae bilin-binding protein (Bbp), parent (P09464 other isoform, or with tags, fused parts or gaps K102S/K150M/N16D/N36Q): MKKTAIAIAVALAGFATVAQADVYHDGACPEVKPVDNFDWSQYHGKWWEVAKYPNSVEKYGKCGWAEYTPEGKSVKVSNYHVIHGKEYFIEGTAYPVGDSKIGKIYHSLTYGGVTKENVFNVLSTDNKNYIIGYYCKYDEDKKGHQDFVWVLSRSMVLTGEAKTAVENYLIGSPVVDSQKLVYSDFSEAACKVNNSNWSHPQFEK

T1 sequence (P09464 other isoform, or with tags, fused parts or gaps with the stated changes): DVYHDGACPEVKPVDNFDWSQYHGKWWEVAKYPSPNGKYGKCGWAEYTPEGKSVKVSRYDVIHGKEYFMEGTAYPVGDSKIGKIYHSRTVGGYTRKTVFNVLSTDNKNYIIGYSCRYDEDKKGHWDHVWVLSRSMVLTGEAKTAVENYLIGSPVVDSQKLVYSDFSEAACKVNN
Chain of UniProt P09464 (P09464 other isoform, or with tags, fused parts or gaps with the stated changes): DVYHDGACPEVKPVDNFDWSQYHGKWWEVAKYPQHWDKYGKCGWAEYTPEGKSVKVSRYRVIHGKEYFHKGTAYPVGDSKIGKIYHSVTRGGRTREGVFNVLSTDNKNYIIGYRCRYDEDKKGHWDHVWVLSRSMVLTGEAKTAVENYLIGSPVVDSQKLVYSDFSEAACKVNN

## Nc1ccc2c(c1)C(=O)OC21c2ccc(O)cc2Oc2cc(O)ccc21 [4-Aminofluorescein, 4-amino-fluorescein]
[1]
  Dissociation constant (Kd): 0.224 ± 0.006 µM
[2]
  Dissociation constant (Kd): 2.84 ± 0.3 µM

## O=C(O)CCCC(=O)Nc1ccc2c(c1)C(=O)OC21c2ccc(O)cc2Oc2cc(O)ccc21 [4-Glutarylamidofluorescein, 4-glutarylamido-fluorescein]
[1]
  Dissociation constant (Kd): 0.601 ± 0.016 µM
[2]
  Dissociation constant (Kd): 4.70 ± 0.51 µM

## O=C1OC2(c3ccc(O)cc3Oc3cc(O)ccc32)c2ccccc21 [Fluorescein, fluorescein]
[1]
  Dissociation constant (Kd): 0.118 ± 0.014 µM
[2]
  Dissociation constant (Kd): 5.73 ± 0.86 µM
[3]
  Quenching of the fluorescence intensity of fluorescein in the complex: 99.7±0.3%
[4]
  Quenching of the fluorescence of fluorescein: no comparable fluorescence quenching was found
